Tests used:
Assay in all cases: Herbicidal effect by foliage and soil treatment
Type in all cases: in vivo
Details in all cases: evaluated after 14 days
[1] = tested on: black nightshade (Solanum nigrum)
How it was run: (§1)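 Post-emergence spray, cotyledon to bifoliate stage; Tween 20/water vehicle, fixed dose per area; greenhouse 19–25 °C; 14 d; visual growth rating vs untreated.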

[2] = tested on: cleavers (Galium aparine)
How it was run: as §1

[3] = tested on: common blackjack (Bidens pilosa)
How it was run: as §1

[4] = tested on: common chickweed (Stellaria media)
How it was run: as §1

[5] = tested on: field bindweed (Convolvulus arvensis)
How it was run: as §1

[6] = tested on: ivyleafspeedwell (Veronica hederaefolia)
How it was run: as §1

[7] = tested on: kediock (Sinapis arvensis)
How it was run: as §1

[8] = tested on: redroot pigweed (Amaranthus retroflexus)
How it was run: as §1

[9] = tested on: sicklepod (Cassia obtusifolia)
How it was run: as §1

[10] = tested on: velvetleaf (Abutilon theophrasti)
How it was run: as §1

[11] = tested on: wild chamomile (Matricaria chamomilla)
How it was run: as §1

SMILES: COc1cc(Oc2cccc(C(F)(F)F)c2)nc(C(=O)N(C)OC)c1 [Compound I-203]
- herbicidal activity rating, SN (Solanum nigrum) ([1]; 10 g ai/10a): 5 (percentage of weeds killed was not less than 80%)
- herbicidal activity rating, GA (Galium aparine) ([2]; 10 g ai/10a): 5 (percentage of weeds killed was not less than 80%)
- herbicidal activity rating, BP (Bidens pilosa) ([3]; 10 g ai/10a): 3 (percentage of weeds killed was not less than 40% and less than 60%)
- herbicidal activity rating, SM (Stellaria media) ([4]; 10 g ai/10a): 4 (percentage of weeds killed was not less than 60% and less than 80%)
- herbicidal activity rating, CA (Convolvulus arvensis) ([5]; 10 g ai/10a): 4 (percentage of weeds killed was not less than 60% and less than 80%)
- herbicidal activity rating, VH (Veronica hederaefolia) ([6]; 10 g ai/10a): 5 (percentage of weeds killed was not less than 80%)
- herbicidal activity rating, SA (Sinapis arvensis) ([7]; 10 g ai/10a): 5 (percentage of weeds killed was not less than 80%)
- herbicidal activity rating, AR (Amaranthus retroflexus) ([8]; 10 g ai/10a): 5 (percentage of weeds killed was not less than 80%)
- herbicidal activity rating, CO (Cassia obtusifolia) ([9]; 10 g ai/10a): 5 (percentage of weeds killed was not less than 80%)
- herbicidal activity rating, AT (Abutilon theophrasti) ([10]; 10 g ai/10a): 4 (percentage of weeds killed was not less than 60% and less than 80%)
- herbicidal activity rating, MC (Matricaria chamomilla) ([11]; 10 g ai/10a): 2 (percentage of weeds killed was not less than 20% and less than 40%)

SMILES: COc1cc(Oc2cccc(C(F)(F)F)c2)nc(C(=O)NNC(C)(C)C)c1 [Compound I-126]
- herbicidal activity rating, SN (Solanum nigrum) ([1]; 10 g ai/10a): 5 (percentage of weeds killed was not less than 80%)
- herbicidal activity rating, GA (Galium aparine) ([2]; 10 g ai/10a): 5 (percentage of weeds killed was not less than 80%)
- herbicidal activity rating, BP (Bidens pilosa) ([3]; 10 g ai/10a): 5 (percentage of weeds killed was not less than 80%)
- herbicidal activity rating, SM (Stellaria media) ([4]; 10 g ai/10a): 5 (percentage of weeds killed was not less than 80%)
- herbicidal activity rating, CA (Convolvulus arvensis) ([5]; 10 g ai/10a): 4 (percentage of weeds killed was not less than 60% and less than 80%)
- herbicidal activity rating, VH (Veronica hederaefolia) ([6]; 10 g ai/10a): 5 (percentage of weeds killed was not less than 80%)
- herbicidal activity rating, SA (Sinapis arvensis) ([7]; 10 g ai/10a): 5 (percentage of weeds killed was not less than 80%)
- herbicidal activity rating, AR (Amaranthus retroflexus) ([8]; 10 g ai/10a): 5 (percentage of weeds killed was not less than 80%)
- herbicidal activity rating, CO (Cassia obtusifolia) ([9]; 10 g ai/10a): 5 (percentage of weeds killed was not less than 80%)
- herbicidal activity rating, AT (Abutilon theophrasti) ([10]; 10 g ai/10a): 5 (percentage of weeds killed was not less than 80%)
- herbicidal activity rating, MC (Matricaria chamomilla) ([11]; 10 g ai/10a): 4 (percentage of weeds killed was not less than 60% and less than 80%)

SMILES: COc1cc(Oc2cccc(C(F)(F)F)c2)nc(C(N)=O)c1 [Compound I-123, 4-methoxy-6-{3-(trifluoromethyl)phenoxy}-2-pyridine carboxamide]
- herbicidal activity rating, SN (Solanum nigrum) ([1]; 10 g ai/10a): 5 (percentage of weeds killed was not less than 80%)
- herbicidal activity rating, GA (Galium aparine) ([2]; 10 g ai/10a): 5 (percentage of weeds killed was not less than 80%)
- herbicidal activity rating, BP (Bidens pilosa) ([3]; 10 g ai/10a): 2 (percentage of weeds killed was not less than 20% and less than 40%)
- herbicidal activity rating, SM (Stellaria media) ([4]; 10 g ai/10a): 5 (percentage of weeds killed was not less than 80%)
- herbicidal activity rating, CA (Convolvulus arvensis) ([5]; 10 g ai/10a): 4 (percentage of weeds killed was not less than 60% and less than 80%)
- herbicidal activity rating, VH (Veronica hederaefolia) ([6]; 10 g ai/10a): 5 (percentage of weeds killed was not less than 80%)
- herbicidal activity rating, SA (Sinapis arvensis) ([7]; 10 g ai/10a): 5 (percentage of weeds killed was not less than 80%)
- herbicidal activity rating, AR (Amaranthus retroflexus) ([8]; 10 g ai/10a): 5 (percentage of weeds killed was not less than 80%)
- herbicidal activity rating, CO (Cassia obtusifolia) ([9]; 10 g ai/10a): 2 (percentage of weeds killed was not less than 20% and less than 40%)
- herbicidal activity rating, AT (Abutilon theophrasti) ([10]; 10 g ai/10a): 3 (percentage of weeds killed was not less than 40% and less than 60%)
- herbicidal activity rating, MC (Matricaria chamomilla) ([11]; 10 g ai/10a): 1 (percentage of weeds killed was less than 20%)

SMILES: COc1cc(Oc2cccc(C(F)(F)F)c2)nc(C(=O)NCCO)c1 [Compound I-89]
- herbicidal activity rating, SN (Solanum nigrum) ([1]; 10 g ai/10a): 5 (percentage of weeds killed was not less than 80%)
- herbicidal activity rating, GA (Galium aparine) ([2]; 10 g ai/10a): 5 (percentage of weeds killed was not less than 80%)
- herbicidal activity rating, BP (Bidens pilosa) ([3]; 10 g ai/10a): 5 (percentage of weeds killed was not less than 80%)
- herbicidal activity rating, SM (Stellaria media) ([4]; 10 g ai/10a): 5 (percentage of weeds killed was not less than 80%)
- herbicidal activity rating, CA (Convolvulus arvensis) ([5]; 10 g ai/10a): 4 (percentage of weeds killed was not less than 60% and less than 80%)
- herbicidal activity rating, VH (Veronica hederaefolia) ([6]; 10 g ai/10a): 5 (percentage of weeds killed was not less than 80%)
- herbicidal activity rating, SA (Sinapis arvensis) ([7]; 10 g ai/10a): 5 (percentage of weeds killed was not less than 80%)
- herbicidal activity rating, AR (Amaranthus retroflexus) ([8]; 10 g ai/10a): 5 (percentage of weeds killed was not less than 80%)
- herbicidal activity rating, CO (Cassia obtusifolia) ([9]; 10 g ai/10a): 5 (percentage of weeds killed was not less than 80%)
- herbicidal activity rating, AT (Abutilon theophrasti) ([10]; 10 g ai/10a): 4 (percentage of weeds killed was not less than 60% and less than 80%)
- herbicidal activity rating, MC (Matricaria chamomilla) ([11]; 10 g ai/10a): 3 (percentage of weeds killed was not less than 40% and less than 60%)

SMILES: COc1cc(Oc2cccc(C(F)(F)F)c2)nc(C(=O)NC2CCC2)c1 [Compound I-49]
- herbicidal activity rating, SN (Solanum nigrum) ([1]; 10 g ai/10a): 5 (percentage of weeds killed was not less than 80%)
- herbicidal activity rating, GA (Galium aparine) ([2]; 10 g ai/10a): 5 (percentage of weeds killed was not less than 80%)
- herbicidal activity rating, BP (Bidens pilosa) ([3]; 10 g ai/10a): 5 (percentage of weeds killed was not less than 80%)
- herbicidal activity rating, SM (Stellaria media) ([4]; 10 g ai/10a): 5 (percentage of weeds killed was not less than 80%)
- herbicidal activity rating, CA (Convolvulus arvensis) ([5]; 10 g ai/10a): 5 (percentage of weeds killed was not less than 80%)
- herbicidal activity rating, VH (Veronica hederaefolia) ([6]; 10 g ai/10a): 5 (percentage of weeds killed was not less than 80%)
- herbicidal activity rating, SA (Sinapis arvensis) ([7]; 10 g ai/10a): 5 (percentage of weeds killed was not less than 80%)
- herbicidal activity rating, AR (Amaranthus retroflexus) ([8]; 10 g ai/10a): 5 (percentage of weeds killed was not less than 80%)
- herbicidal activity rating, CO (Cassia obtusifolia) ([9]; 10 g ai/10a): 5 (percentage of weeds killed was not less than 80%)
- herbicidal activity rating, AT (Abutilon theophrasti) ([10]; 10 g ai/10a): 5 (percentage of weeds killed was not less than 80%)
- herbicidal activity rating, MC (Matricaria chamomilla) ([11]; 10 g ai/10a): 5 (percentage of weeds killed was not less than 80%)

SMILES: CC(C)NC(=O)c1cccc(Oc2cccc(C(F)(F)F)c2)n1 [control (a)]
- herbicidal activity rating, SN (Solanum nigrum) ([1]; 10 g ai/10a): 4 (percentage of weeds killed was not less than 60% and less than 80%)
- herbicidal activity rating, SN (Solanum nigrum) ([1]; 25 g ai/10a): 4 (percentage of weeds killed was not less than 60% and less than 80%)
- herbicidal activity rating, SN (Solanum nigrum) ([1]; 62.5 g ai/10a): 5 (percentage of weeds killed was not less than 80%)
- herbicidal activity rating, GA (Galium aparine) ([2]; 10 g ai/10a): 2 (percentage of weeds killed was not less than 20% and less than 40%)
- herbicidal activity rating, GA (Galium aparine) ([2]; 25 g ai/10a): 3 (percentage of weeds killed was not less than 40% and less than 60%)
- herbicidal activity rating, GA (Galium aparine) ([2]; 62.5 g ai/10a): 4 (percentage of weeds killed was not less than 60% and less than 80%)
- herbicidal activity rating, BP (Bidens pilosa) ([3]; 10 g ai/10a): 1 (percentage of weeds killed was less than 20%)
- herbicidal activity rating, BP (Bidens pilosa) ([3]; 25 g ai/10a): 1 (percentage of weeds killed was less than 20%)
- herbicidal activity rating, BP (Bidens pilosa) ([3]; 62.5 g ai/10a): 1 (percentage of weeds killed was less than 20%)
- herbicidal activity rating, SM (Stellaria media) ([4]; 10 g ai/10a): 1 (percentage of weeds killed was less than 20%)
- herbicidal activity rating, SM (Stellaria media) ([4]; 25 g ai/10a): 1 (percentage of weeds killed was less than 20%)
- herbicidal activity rating, SM (Stellaria media) ([4]; 62.5 g ai/10a): 1 (percentage of weeds killed was less than 20%)
- herbicidal activity rating, CA (Convolvulus arvensis) ([5]; 10 g ai/10a): 2 (percentage of weeds killed was not less than 20% and less than 40%)
- herbicidal activity rating, CA (Convolvulus arvensis) ([5]; 25 g ai/10a): 3 (percentage of weeds killed was not less than 40% and less than 60%)
- herbicidal activity rating, CA (Convolvulus arvensis) ([5]; 62.5 g ai/10a): 3 (percentage of weeds killed was not less than 40% and less than 60%)
- herbicidal activity rating, VH (Veronica hederaefolia) ([6]; 10 g ai/10a): 3 (percentage of weeds killed was not less than 40% and less than 60%)
- herbicidal activity rating, VH (Veronica hederaefolia) ([6]; 25 g ai/10a): 4 (percentage of weeds killed was not less than 60% and less than 80%)
- herbicidal activity rating, VH (Veronica hederaefolia) ([6]; 62.5 g ai/10a): 5 (percentage of weeds killed was not less than 80%)
- herbicidal activity rating, SA (Sinapis arvensis) ([7]; 10 g ai/10a): 3 (percentage of weeds killed was not less than 40% and less than 60%)
- herbicidal activity rating, SA (Sinapis arvensis) ([7]; 25 g ai/10a): 4 (percentage of weeds killed was not less than 60% and less than 80%)
- herbicidal activity rating, SA (Sinapis arvensis) ([7]; 62.5 g ai/10a): 5 (percentage of weeds killed was not less than 80%)
- herbicidal activity rating, AR (Amaranthus retroflexus) ([8]; 10 g ai/10a): 3 (percentage of weeds killed was not less than 40% and less than 60%)
- herbicidal activity rating, AR (Amaranthus retroflexus) ([8]; 25 g ai/10a): 3 (percentage of weeds killed was not less than 40% and less than 60%)
- herbicidal activity rating, AR (Amaranthus retroflexus) ([8]; 62.5 g ai/10a): 4 (percentage of weeds killed was not less than 60% and less than 80%)
- herbicidal activity rating, CO (Cassia obtusifolia) ([9]; 10 g ai/10a): 1 (percentage of weeds killed was less than 20%)
- herbicidal activity rating, CO (Cassia obtusifolia) ([9]; 25 g ai/10a): 2 (percentage of weeds killed was not less than 20% and less than 40%)
- herbicidal activity rating, CO (Cassia obtusifolia) ([9]; 62.5 g ai/10a): 3 (percentage of weeds killed was not less than 40% and less than 60%)
- herbicidal activity rating, AT (Abutilon theophrasti) ([10]; 10 g ai/10a): 2 (percentage of weeds killed was not less than 20% and less than 40%)
- herbicidal activity rating, AT (Abutilon theophrasti) ([10]; 25 g ai/10a): 3 (percentage of weeds killed was not less than 40% and less than 60%)
- herbicidal activity rating, AT (Abutilon theophrasti) ([10]; 62.5 g ai/10a): 3 (percentage of weeds killed was not less than 40% and less than 60%)
- herbicidal activity rating, MC (Matricaria chamomilla) ([11]; 10 g ai/10a): 1 (percentage of weeds killed was less than 20%)
- herbicidal activity rating, MC (Matricaria chamomilla) ([11]; 25 g ai/10a): 1 (percentage of weeds killed was less than 20%)
- herbicidal activity rating, MC (Matricaria chamomilla) ([11]; 62.5 g ai/10a): 1 (percentage of weeds killed was less than 20%)

From US6339045B1, “N-(unsubstituted or substituted)-4-substituted-6-(unsubstituted or substituted)phenoxy-2-pyridinecarboxamides or thiocarboxamides, processes for producing the same, and herbicides” (Kureha Kagaku Kogyo Kabushiki Kaisha, priority 1995, dated 2002)
